In patent US6673778B1, “Enzyme inhibitors for metabolic redirection” (The Board of Regents of the University of Nebraska, priority 1996, dated 2004):
Marks after values point to notes of the source that are not given here. In the oligonucleotide strings, read from the 5' end, every base follows the letter of its sugar. An asterisk marks phosphorothioate; unmarked linkages are phosphodiester. Other units and linkages are bracketed, terminal groups are in braces. A string of capitals states the bases alone. d = 2'-deoxy (DNA)

Assays:
CYP3A2 = experiment: Erythromycin demethylation (ED) in liver microsomes; assay type: in vivo, rat; conditions: 1000 μg/day i.p.
Procedure: Sleep time was measured after i.p. injection of 50 mg/kg MZ (Hoffman-La Roche, Nutley, N.J.) at 0 (day 1), 24 (day 2) and 48 h (day 4). The volume of the injection was from 2.0 to 2.4 ml/rat. […] The rats were treated with 0.25, 0.50 or 1.00 mg antisense ODN i.p. immediately after the animal had regained its righting reflex determined at 0 and 24 h. Control rats received saline only. Total volume injection was 0.1 ml in saline.
Microsomes were prepared, as described by Franklin and Estabrook (cited above) for determination of enzyme level and activity.
Erythromycin demethylation (ED) was used a measure of CYP3A2 enzymatic activity (Gonzalez, Pharmacol. Rev. 40:243-87, 1989). Activity was recorded as micromoles of formaldehyde per milligram of protein per minute.

rat CYP3A2 = experiment: Midazolam sleep time in rats; assay type: in vivo; conditions: 1000 μg/day i.p.; MZ 50 mg/kg i.p.
Procedure: (§1) Male Sprague-Dawley rats (Sasco, Omaha) weighing between 210 to 290 grams were used for all studies. The animals were exposed to 12 hour light/dark cycle and fed Purina rat chow and tap water ad libitum.
Sleep time was measured after i.p. injection of 50 mg/kg MZ (Hoffman-La Roche, Nutley, N.J.) at 0 (day 1), 24 (day 2) and […]. The volume of the injection was from 2.0 to 2.4 ml/rat. […] […] Control rats received saline only. Total volume injection was 0.1 ml in saline.

CYP2B1 protein = experiment: ELISA for CYP2B1 protein in liver microsomes; conditions: for HRP activity (CYP2B1 ELISA): liver microsomes
Procedure: (§2) Rats were injected intraperitoneally (i.p.) with the indicated ODNs (see Table 3) once per day for 2 days, in an amount of lmg/kg body weight per injection. Control rats were injected with saline only. Rats in the “PB” groups were injected i.p. with phenobarbital (Mallinckrodt, St. Louis) at 80 mg/kg body weight per injection, once per day for 2 days. In the groups in which PB was co-administered with ODN, injections were administered simultaneously. Total volume of injections for all groups was […]. Animals in the “2B1-NRM+PB+PRETREATMENT” group also received a dose of 1 mg/kg of 2B1-NRM oligomer (SEQ ID NO: 17) 24 hours prior to the first administration of 2B1-NRM plus PB.
Microsomes were prepared, as described by Franklin and Estabrook (Arch. Biochem. Biophys. 143:318-29, 1971), for determination of enzyme level and activity. The rats were sacrificed using ethyl ether, and livers were perfused with 12 ml of 4% saline via the portal vein and then removed from the animal. The livers were minced, homogenized in 0.25 M sucrose (Sigma) and centrifuged at 8000×G for 20 minutes at 4° C. in a Sorvall RC2-B centrifuge (Dupont). The supernatant was saved, resuspended in 0.25 M sucrose, and centrifuged at 100,000×G for 45 minutes at 4° C. in a Sorvall OTD55B ultracentrifuge (Dupont). The pellet was resuspended in 1.15% KCl (Sigma) and centrifuged at 100,000×G for 1 hour at 4° C. The final pellet was resuspended in an equal volume buffer (10 mM Tris-acetate, 1 mM EDTA, 20% glycerol; Sigma) and frozen at −80° C.
Direct measurement of CYP2B1 protein was performed by an ELISA assay, using an antibody directed to the CYP2B1 protein (Schuurs and Van Weeman, Clin Chim Acta 81(1):1-40, 1977). Fifty μg of microsomal proteins per well were plated in 100 μl 0.35% sodium bicarbonate buffer overnight on a 96 well nunc-immuno plate (InterMed, Skokie, Ill.). The microsomes were washed 3× with 1% bovine serum albumin in PBS (PBS/BSA) and incubated for 1 hr at 37° C. with 200 μl PBS/BSA. The PBS/BSA was removed, and 50 μl of CYP2B1 antibody (Oxygene, Dallas) was added and incubated for 1 hour at 37° C. The microsomes were washed 5× with saline/Tween 20™ (Sigma), and 50 μl horseradish peroxidase (HRP)-conjugated secondary antibody (Bio-Rad) was added. The microsomes were incubated for 1 hour at 37° C., then washed 5× with saline/Tween 20™ and twice with 85% saline. HRP substrate (Kirkegaard & Perry Labs, Gaithersburg, Md.) (100 μl) was added, and the absorbance at 405 nm was read continuously in a microplate reader (Molecular Devices) for 1 hour. Results were recorded as HRP activity in mOD/min.

CYP2B1 = experiment: PROD assay of liver microsomes (CYP2B1 enzyme activity); assay type: in vivo, rat; conditions: ODN alone
Procedure: Control rats were injected with saline only.
CYP2B1 enzyme activity was determined by pentoxyresorufin O-dealkylation (PROD) activity (Burke et al., 1985). For each microsomal sample, 1 mg protein in 1 ml 0.1 M potassium phosphate buffer, 1 ml 2 μM 5-pentoxyresorufin (Pierce, Rockford, Ill.), and 17 μl 60 mM NADPH were mixed and incubated for 10 minutes at 37° C. The mixture was then added to a 2 ml cuvette and read on a RF5000U spectrofluorophotometer (Shimadzu, Columbia, Md.), using an excitation wavelength of 530 nm and emission wavelength of 585 nm. Concentrations were calculated from a calibration curve of resorufin standards (Pierce, Rockford, Ill.). Results were recorded in nmol resorufin/mg protein/min.

CYP2E1 = experiment: Microsomal PNP (p-nitrophenol hydroxylase) activity; assay type: in vivo, rat; conditions: liver microsomes
Procedure: Microsomal PNP (p-nitrophenol hydroxylase) activity was used as a measure of induction of CYP2E1, as PB is known to induce many different CYPs, including CYP2E1. CYP2E1 activity was determined by PNP activity as described in Reinke and Moyer, Drug Metab. Dispos. 13:548-52, 1985; Koop, Mol. Phannacol. 29:399404, 1986). Activity was recorded as optical density (OD) per milligram of protein per minute.

CYP2B1 mRNA = experiment: Melting temperature (Tm) of ODNs used in Example 1; assay type: physicochemical, rat
From the text: The oligo 2B1-ATG (SEQ ID NO: 16) is a 22-mer having 100% complementarity to a region containing the AUG start codon on the rat CYP2B1 mRNA (SEQ ID NO: 39, shown below Table). The oligo 2B1-NRM (SEQ ID NO: 17) has 100% complementarity to the CYP2B1 mRNA starting at base 855. The oligo 2B1-BPB (SEQ ID NO: 36) has the sequence of 2B1-NRM with a two base deletion (indicated in bold in the 2B1-NRM sequence). Each of the oligos 2B1-3MM (SEQ ID NO: 37) and 2B1-CMM (SEQ ID NO: 38) has 2 bases reversed (indicated in bold) compared to the BPB sequence. […] The table gives the melting temperature (Tm), molecular weight, and % homology to CYP2B1 mRNA of each sequence.

rat CYP2B1 = experiment: Hexobarbital sleep time in rats; assay type: in vivo
Procedure: as §1, with “studies. They were housed in animal quarters at the University of Nebraska Medical Center AAALAC-approved Animal Resource Facility.” for “studies.”
as §2
Forty-eight hours following the first (non-pretreatment) injection of ODN and/or PB, the rats were injected i.p. with 100 mg/kg body weight hexobarbital (Sigma, St. Louis), in a total volume of 1 ml/kg body weight, prepared fresh daily. Sleep time, defined as the time period from when the rat is placed on its back to when it regains its righting reflex, was measured. Sleep times are given in Table 5 as the mean of each animal in the group ±standard deviation.

[1] = treatment alone (ODN 1 mg/kg or PB 80 mg/kg i.p. once per day for 2 days), hexobarbital 100 mg/kg i.p. at 48 h
[2] = ODN + PB 80 mg/kg injected simultaneously, 2 days, hexobarbital 100 mg/kg i.p.

Molecule | HRP activity (CYP2B1 ELISA) (CYP2B1 protein; treatment alone) [mOD/min] | HRP activity versus control (in words) (CYP2B1 protein; treatment alone) | PROD activity versus control (in words) (CYP2B1) | PNP activity versus control (in words) (CYP2E1; treatment alone) | Tm (CYP2B1 mRNA) [°C] | Effect on hexobarbital sleep time (in words) (rat CYP2B1; ODN alone, versus control) | Sleep time, Percent of Control (rat CYP2B1; treatment alone) | Sleep Time (min ± sd) (rat CYP2B1; [1]) | HRP activity versus PB-alone group (in words) (CYP2B1 protein; ODN + PB) | HRP activity (CYP2B1 ELISA) (CYP2B1 protein; ODN + PB) [mOD/min] | PNP activity versus control (in words) (CYP2E1; ODN + PB) | Sleep time, Percent of Control (rat CYP2B1; ODN + PB) | Sleep Time (min ± sd) (rat CYP2B1; [2]) | Effect on hexobarbital sleep time (in words) (rat CYP2B1; ODN + PB, versus PB group) | other results
REV3A2/PS: PS DNA reverse control, SEQ ID NO: 43, 5′-TACCTCGACGAAAGTCGAGAGT-3′ (antisense dT*dA*dC*dC*dT*dC*dG*dA*dC*dG*dA*dA*dA*dG*dT*dC*dG*dA*dG*dA*dG*dT) | – | – | – | – | – | – | – | – | – | – | – | – | – | – | ED (erythromycin demethylase activity) (CYP3A2): 91 μmol HCOH/mg/min; MZ ST (midazolam sleep time) (rat CYP3A2): 22.4 ± 0.6 min
2B1-3MM (antisense AAAGAAGAGAGAGCAGGGGA; chemistry not given here) | 9.2 ± 5.0 | no change in HRP activity over control microsomes | no change from control | no significant differences in PNP activities from control values | 49.8 | slightly lengthened sleep time over the control | 132.4% of Control | 31.0 ± 9.6 min | – | – | – | – | – | – | –
2B1-NRM (antisense AAAGAAGAGAGAGAGCAGGGAG; chemistry not given here) | 13.8 ± 5.6 | no change in HRP activity over control microsomes | no change from control | no significant differences in PNP activities from control values | 50.6 | no effect on sleep time compared to control | 98.2% of Control | 23.0 ± 3.2 min | a decrease in HRP activity over that of the PB-alone treatment group | 17.9 ± 4.6 | significant increases in PNP activities over that of control | 57.7% of Control | 13.5 ± 0.9 min | no observable antisense effect | HRP activity versus PB-alone group (in words) (CYP2B1 protein; ODN + PB + pretreatment): a decrease in HRP activity over that of the PB-alone treatment group; HRP activity (CYP2B1 ELISA) (CYP2B1 protein; ODN + PB/Pretreatment): 18.7 ± 0.3 mOD/min; PNP activity versus control (in words) (CYP2E1; ODN + PB + pretreatment): significant increases in PNP activities over that of control; Effect on hexobarbital sleep time (in words) (rat CYP2B1; ODN pretreatment + PB): essentially the same as without pretreatment; Sleep time, Percent of Control (rat CYP2B1; ODN pretreatment + PB): 56.8% of Control; Sleep Time (min ± sd) (rat CYP2B1; ODN pretreatment one day before ODN + PB, 2 days, hexobarbital 100 mg/kg i.p.): 13.3 ± 3.0 min
2B1-CMM (antisense AAAGAAGAGAAGGCAGGGAG; chemistry not given here) | 10.1 ± 3.3 | no change in HRP activity over control microsomes | no change from control | no significant differences in PNP activities from control values | 49.5 | did not significantly alter HB sleep time from the control | 98.2% of Control | 23.0 ± 5.3 min | – | – | – | – | – | – | –
CCC1(c2ccccc2)C(=O)NC(=O)NC1=O [Phenobarbital (PB), phenobarbital, reference compound] | 22.5 ± 4.2 | significantly greater than the activity of microsomes from control rats | – | significant increases in PNP activities over that of control | – | – | 48.7% of Control | 11.4 ± 4.5^a min | – | – | – | – | – | – | Sleep Time (min ± sd) (rat CYP2B1; treatment alone (ODN 1 mg/kg or PB 80 mg/kg i.p. once per day for 2 days), hexobarbital 100 mg/kg i.p. at 48 h, listed as PB): about 11.4 min
2B1-ATG (antisense GGAGCAAGATACTGGGCTCCAT; chemistry not given here) | 13.2 ± 4.4 | no change in HRP activity over control microsomes | no change from control | no significant differences in PNP activities from control values | 68.0 | did not significantly alter sleep time over control | 87.6% of Control | 20.5 ± 5.3 min | a significant decrease in HRP activity over the PB-alone group | 12.9 ± 5.0 | significant increases in PNP activities over that of control | 82.5% of Control | 19.3 ± 4.4^b min | sleep time increased significantly over that of the PB group | –
